According to US20250230193A1, “CYCLIC COMPOUND HAVING SELECTIVE KRAS INHIBITORY EFFECT ON HRAS AND NRAS” (CHUGAI SEIYAKU KABUSHIKI KAISHA, priority 2022, published 2025):
Where a SMILES comes first, the peptide text is derived from it. Bridges are numbered along the chain shown (N, C = ends). [ ]: non-standard residue; d: D form. The star is where a group is joined. hPhe(3-Cl-4-CF3) = N[C@@H](CCc1ccc(C(F)(F)F)c(Cl)c1)C(=O)O; NPrPhe(4-CF3) = CCCN[C@@H](Cc1ccc(C(F)(F)F)cc1)C(=O)O; NMeGly(cPent) = CN[C@H](C(=O)O)C1CCCC1; Pro(4,4-F2) = O=C(O)[C@@H]1CC(F)(F)CN1; Hyp = O=C(O)[C@@H]1C[C@@H](O)CN1; NMeD = CN[C@@H](CC(=O)O)C(=O)O; NMeL = CN[C@@H](CC(C)C)C(=O)O; Morpholide = C1CN(*)CCO1; NMeA = CN[C@@H](C)C(=O)O; Ac5c = NC1(C(=O)O)CCCC1; Aze = O=C(O)[C@@H]1CCN1; Ac4c = NC1(C(=O)O)CCC1; Sar = CNCC(=O)O

Key:
[1] = target: GDP-bound NRAS wild-type protein (Homo sapiens, UniProt P01111); assay: Binding to NRAS by surface plasmon resonance (SPR), Single Cycle Kinetics; settings: KD ratio NRAS/KRAS, SPR
[2] = target: GDP-bound HRAS wild-type protein (Homo sapiens, UniProt P01112); assay: Binding to HRAS by surface plasmon resonance (SPR), Single Cycle Kinetics; settings: KD ratio HRAS/KRAS, SPR
GDP-bound HRAS wild-type protein, sequence (P01112 whole entry): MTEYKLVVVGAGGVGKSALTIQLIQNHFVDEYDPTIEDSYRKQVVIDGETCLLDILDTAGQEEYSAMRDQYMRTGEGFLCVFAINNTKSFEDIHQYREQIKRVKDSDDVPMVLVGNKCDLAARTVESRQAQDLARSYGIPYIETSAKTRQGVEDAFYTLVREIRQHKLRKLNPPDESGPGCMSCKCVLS

GDP-bound NRAS wild-type protein, sequence (P01111 whole entry): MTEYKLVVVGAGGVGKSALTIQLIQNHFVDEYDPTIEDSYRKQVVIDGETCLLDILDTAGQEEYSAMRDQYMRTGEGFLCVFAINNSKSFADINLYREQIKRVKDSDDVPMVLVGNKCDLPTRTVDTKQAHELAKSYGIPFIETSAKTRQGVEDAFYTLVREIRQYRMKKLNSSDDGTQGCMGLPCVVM

Row | SMILES | NRAS/KRAS (ratio of KD for GDP-bound NRAS wild-type to KD for KRAS) [1] | HRAS/KRAS (ratio of KD for GDP-bound HRAS wild-type to KD for KRAS) [2] | NRAS/KRAS (ratio of KD value with respect to GDP-bound NRAS wild-type protein to KD value with respect to KRAS) [1] | HRAS/KRAS (ratio of KD value with respect to GDP-bound HRAS wild-type protein to KD value with respect to KRAS) [2]
1 | CCCN1C(=O)[C@@H]2CCN2C(=O)[C@H](C)N(C)C(=O)[C@H]([C@@H](C)CC)NC(=O)[C@H](CC(C)C)N(C)C(=O)C[C@@H](C(=O)N2CCOCC2)N(C)C(=O)[C@H](C2CCCC2)N(C)C(=O)C2(CCC2)NC(=O)[C@@H]2C[C@@H](OCC)CN2C(=O)[C@H](CCc2ccc(C(F)(F)F)c(Cl)c2)NC(=O)CN(C)C(=O)[C@@H]1Cc1ccc(C(F)(F)F)cc1 [PP0406] ([NMeL]I[NMeA][Aze][NPrPhe(4-CF3)][Sar][hPhe(3-Cl-4-CF3)][Hyp](Et)[Ac4c][NMeGly(cPent)][NMeD]-Morpholide; lactam N-11) | C (A compound having a KD ratio of 0.1 or more and less than 3 is denoted as C) | B (a compound having 3 or more and less than 10 is denoted as B) | – | –
2 | CCCN1C(=O)[C@@H]2CCN2C(=O)CN(C)C(=O)[C@H]([C@@H](C)CC)NC(=O)[C@H](CC(C)C)N(C)C(=O)C[C@@H](C(=O)N2CCOCC2)N(C)C(=O)[C@H](C2CCCC2)N(C)C(=O)C2(CCC2)NC(=O)[C@@H]2CCCN2C(=O)[C@H](CCc2ccc(C(F)(F)F)c(Cl)c2)NC(=O)CN(C)C(=O)[C@@H]1Cc1ccc(C(F)(F)F)cc1 [PP0407] ([NMeL]I[Sar][Aze][NPrPhe(4-CF3)][Sar][hPhe(3-Cl-4-CF3)]P[Ac4c][NMeGly(cPent)][NMeD]-Morpholide; lactam N-11) | C (A compound having a KD ratio of 0.1 or more and less than 3 is denoted as C) | B (a compound having 3 or more and less than 10 is denoted as B) | – | –
3 | CCCN1C(=O)[C@@H]2CCN2C(=O)CN(C)C(=O)[C@H]([C@@H](C)CC)NC(=O)[C@H](CC(C)C)N(C)C(=O)C[C@@H](C(=O)N2CCOCC2)N(C)C(=O)[C@H](C2CCCC2)N(C)C(=O)C2(CCCC2)NC(=O)[C@@H]2CC(F)(F)CN2C(=O)[C@H](CCc2ccc(C(F)(F)F)c(Cl)c2)NC(=O)CN(C)C(=O)[C@@H]1Cc1ccc(C(F)(F)F)cc1 [PP0408] ([NMeL]I[Sar][Aze][NPrPhe(4-CF3)][Sar][hPhe(3-Cl-4-CF3)][Pro(4,4-F2)][Ac5c][NMeGly(cPent)][NMeD]-Morpholide; lactam N-11) | C (A compound having a KD ratio of 0.1 or more and less than 3 is denoted as C) | B (a compound having 3 or more and less than 10 is denoted as B) | – | –
4 | CCCN1C(=O)[C@@H]2CCN2C(=O)CN(C)C(=O)[C@H]([C@@H](C)CC)NC(=O)[C@H](CC(C)C)N(C)C(=O)C[C@@H](C(=O)N2CCOCC2)N(C)C(=O)[C@H](C2CCCC2)N(C)C(=O)C2(CCC2)NC(=O)[C@@H]2CC(F)(F)CN2C(=O)[C@H](CCc2ccc(C(F)(F)F)c(Cl)c2)NC(=O)CN(C)C(=O)[C@@H]1Cc1ccc(C(F)(F)F)cc1 [PP0409] ([NMeL]I[Sar][Aze][NPrPhe(4-CF3)][Sar][hPhe(3-Cl-4-CF3)][Pro(4,4-F2)][Ac4c][NMeGly(cPent)][NMeD]-Morpholide; lactam N-11) | – | – | C (A compound having a KD ratio of 0.1 or more and less than 3 is denoted as C) | C (A compound having a KD ratio of 0.1 or more and less than 3 is denoted as C)
5 | CCCN1C(=O)[C@@H]2CCN2C(=O)CN(C)C(=O)[C@H]([C@@H](C)CC)NC(=O)[C@H](CC(C)C)N(C)C(=O)C[C@@H](C(=O)N2CCOCC2)N(C)C(=O)[C@H](C2CCCC2)N(C)C(=O)C2(CCCC2)NC(=O)[C@@H]2C[C@@H](OCC)CN2C(=O)[C@H](CCc2ccc(C(F)(F)F)c(Cl)c2)NC(=O)CN(C)C(=O)[C@@H]1Cc1ccc(C(F)(F)F)cc1 [PP0410] ([NMeL]I[Sar][Aze][NPrPhe(4-CF3)][Sar][hPhe(3-Cl-4-CF3)][Hyp](Et)[Ac5c][NMeGly(cPent)][NMeD]-Morpholide; lactam N-11) | – | – | C (A compound having a KD ratio of 0.1 or more and less than 3 is denoted as C) | B (a compound having 3 or more and less than 10 is denoted as B)
6 | CCCN1C(=O)[C@@H]2CCN2C(=O)CN(C)C(=O)[C@H]([C@@H](C)CC)NC(=O)[C@H](CC(C)C)N(C)C(=O)C[C@@H](C(=O)N2CCOCC2)N(C)C(=O)[C@H](C2CCCC2)N(C)C(=O)C2(CCC2)NC(=O)[C@@H]2C[C@@H](OCC)CN2C(=O)[C@H](CCc2ccc(C(F)(F)F)c(Cl)c2)NC(=O)CN(C)C(=O)[C@@H]1Cc1ccc(C(F)(F)F)cc1 [PP0411] ([NMeL]I[Sar][Aze][NPrPhe(4-CF3)][Sar][hPhe(3-Cl-4-CF3)][Hyp](Et)[Ac4c][NMeGly(cPent)][NMeD]-Morpholide; lactam N-11) | – | – | C (A compound having a KD ratio of 0.1 or more and less than 3 is denoted as C) | C (A compound having a KD ratio of 0.1 or more and less than 3 is denoted as C)
7 | CCCN1C(=O)CN(C)C(=O)CN(C)C(=O)[C@H]([C@@H](C)CC)NC(=O)[C@H](CC(C)C)N(C)C(=O)C[C@@H](C(=O)N(C)C)N(C)C(=O)[C@H](C2CCCC2)N(C)C(=O)C2(CCC2)NC(=O)[C@@H]2CCCN2C(=O)[C@H](CCc2ccc(C(F)(F)F)c(Cl)c2)NC(=O)CN(C)C(=O)[C@@H]1Cc1ccc(C(F)(F)F)cc1 [PP0412] ([NMeL]I[Sar][Sar][NPrPhe(4-CF3)][Sar][hPhe(3-Cl-4-CF3)]P[Ac4c][NMeGly(cPent)][NMeD]-NMe2; lactam N-11) | – | – | B (a compound having 3 or more and less than 10 is denoted as B) | C (A compound having a KD ratio of 0.1 or more and less than 3 is denoted as C)
8 | CCCN1C(=O)CN(C)C(=O)CN(C)C(=O)[C@H]([C@@H](C)CC)NC(=O)[C@H](CC(C)C)N(C)C(=O)C[C@@H](C(=O)N(C)C)N(C)C(=O)[C@H](C2CCCC2)N(C)C(=O)C2(CCCC2)NC(=O)[C@@H]2CC(F)(F)CN2C(=O)[C@H](CCc2ccc(C(F)(F)F)c(Cl)c2)NC(=O)CN(C)C(=O)[C@@H]1Cc1ccc(C(F)(F)F)cc1 [PP0413] ([NMeL]I[Sar][Sar][NPrPhe(4-CF3)][Sar][hPhe(3-Cl-4-CF3)][Pro(4,4-F2)][Ac5c][NMeGly(cPent)][NMeD]-NMe2; lactam N-11) | – | – | C (A compound having a KD ratio of 0.1 or more and less than 3 is denoted as C) | C (A compound having a KD ratio of 0.1 or more and less than 3 is denoted as C)
9 | CCCN1C(=O)CN(C)C(=O)CN(C)C(=O)[C@H]([C@@H](C)CC)NC(=O)[C@H](CC(C)C)N(C)C(=O)C[C@@H](C(=O)N(C)C)N(C)C(=O)[C@H](C2CCCC2)N(C)C(=O)C2(CCC2)NC(=O)[C@@H]2CC(F)(F)CN2C(=O)[C@H](CCc2ccc(C(F)(F)F)c(Cl)c2)NC(=O)CN(C)C(=O)[C@@H]1Cc1ccc(C(F)(F)F)cc1 [PP0414] ([NMeL]I[Sar][Sar][NPrPhe(4-CF3)][Sar][hPhe(3-Cl-4-CF3)][Pro(4,4-F2)][Ac4c][NMeGly(cPent)][NMeD]-NMe2; lactam N-11) | – | – | B (a compound having 3 or more and less than 10 is denoted as B) | C (A compound having a KD ratio of 0.1 or more and less than 3 is denoted as C)
10 | CCCN1C(=O)CN(C)C(=O)CN(C)C(=O)[C@H]([C@@H](C)CC)NC(=O)[C@H](CC(C)C)N(C)C(=O)C[C@@H](C(=O)N(C)C)N(C)C(=O)[C@H](C2CCCC2)N(C)C(=O)C2(CCCC2)NC(=O)[C@@H]2C[C@@H](OCC)CN2C(=O)[C@H](CCc2ccc(C(F)(F)F)c(Cl)c2)NC(=O)CN(C)C(=O)[C@@H]1Cc1ccc(C(F)(F)F)cc1 [PP0415] ([NMeL]I[Sar][Sar][NPrPhe(4-CF3)][Sar][hPhe(3-Cl-4-CF3)][Hyp](Et)[Ac5c][NMeGly(cPent)][NMeD]-NMe2; lactam N-11) | – | – | B (a compound having 3 or more and less than 10 is denoted as B) | B (a compound having 3 or more and less than 10 is denoted as B)
11 | CCCN1C(=O)CN(C)C(=O)CN(C)C(=O)[C@H]([C@@H](C)CC)NC(=O)[C@H](CC(C)C)N(C)C(=O)C[C@@H](C(=O)N(C)C)N(C)C(=O)[C@H](C2CCCC2)N(C)C(=O)C2(CCC2)NC(=O)[C@@H]2C[C@@H](OCC)CN2C(=O)[C@H](CCc2ccc(C(F)(F)F)c(Cl)c2)NC(=O)CN(C)C(=O)[C@@H]1Cc1ccc(C(F)(F)F)cc1 [PP0416] ([NMeL]I[Sar][Sar][NPrPhe(4-CF3)][Sar][hPhe(3-Cl-4-CF3)][Hyp](Et)[Ac4c][NMeGly(cPent)][NMeD]-NMe2; lactam N-11) | – | – | B (a compound having 3 or more and less than 10 is denoted as B) | C (A compound having a KD ratio of 0.1 or more and less than 3 is denoted as C)
12 | CCCN1C(=O)CN(C)C(=O)CNC(=O)[C@H]([C@@H](C)CC)NC(=O)[C@H](CC(C)C)N(C)C(=O)C[C@@H](C(=O)N(C)C)N(C)C(=O)[C@H](C2CCCC2)N(C)C(=O)C2(CCCC2)NC(=O)[C@@H]2CCCN2C(=O)[C@H](CCc2ccc(C(F)(F)F)c(Cl)c2)NC(=O)CN(C)C(=O)[C@@H]1Cc1ccc(C(F)(F)F)cc1 [PP0417] ([NMeL]IG[Sar][NPrPhe(4-CF3)][Sar][hPhe(3-Cl-4-CF3)]P[Ac5c][NMeGly(cPent)][NMeD]-NMe2; lactam N-11) | – | – | B (a compound having 3 or more and less than 10 is denoted as B) | C (A compound having a KD ratio of 0.1 or more and less than 3 is denoted as C)
